According to patent US20250214925A1, “CATIONIC LIPID, LIPOSOME, LIPID NANOPARTICLE, AND USE” (CARCELL BIOPHARMA LTD., priority 2022, published 2025):

Assays:
[1] = LNP size and PDI by dynamic laser light scattering; assay type: physicochemical; details: LNP: 50% cationic lipid, 38.5% cholesterol, 10% DSPC, 1.5% DMG-PEG2000; Ffluc mRNA
Description: (§1) 1. The cationic lipid (50 mg/mL) prepared in the above examples of the present disclosure, cholesterol (20 mg/mL), DSPC (20 mg/mL) and DMG-PEG2000 (20 mg/mL) were dissolved in ethanol, and the solution was placed in a 55° C. metal thermostatic bath as needed to aid dissolution, to obtain a lipid mixture with the following molar composition: 1.5% DMG-PEG2000, 50% cationic lipid, 38.5% cholesterol, and 10% DSPC.
(§2) 2. The mRNA encoding Ffluc was diluted with 10 mM pH 4.0 citrate buffer to prepare a 0.2 mg/mL mRNA solution.
(§3) 3. The lipid mixture prepared in step 1 was mixed with the mRNA solution prepared in step 2 using a syringe pump with a tee at a total flow rate of 40 mL/min.
(§4) 4. The LNP mixture was collected after the three-way mixing and placed in a dialysis bag with a molecular weight cut-off of 100 KDa.
(§5) 5. The LNP mixture was dialyzed overnight against 50 mM Tris-buffered saline, pH 7.4.
(§6) 6. Sieving, and subsequent measurement of the sieved LNP to measure the PDI of the LNP by dynamic laser light scattering; to measure the mRNA encapsulation efficiency and concentration by Ribogreen assay; and to measure the pKa by TNS-α assay.

[2] = mRNA encapsulation efficiency of LNP by Ribogreen assay; assay type: physicochemical; details: LNP: 50% cationic lipid, 38.5% cholesterol, 10% DSPC, 1.5% DMG-PEG2000; Ffluc mRNA
Description: as §1, §2, §3, §4, §5, §6

mice = assay: In vivo delivery of Ffluc mRNA LNP in mice, intravenous administration, luminescence relative to MC3; design: species or system mice (female Balb/C); details: fold change in luminescence intensity relative to MC3; 0.06 mg/kg tail vein; 6 h after injection
Description: The prepared encapsulation solution was applied to mice in the following manner, and its delivery efficiency in mice was tested. Among them, DLin-MC3-DMA (MC3) was a cationic liposome for delivering small nucleic acids that was approved by the FDA for marketing in 2018, which has high nucleic acid drug delivery efficiency and biosafety, and was usually used as the industry gold standard in the screening process of cationic lipids. In the evaluation of mice experiments, the ratio of nucleic acid delivery efficiency normalized to MC3 was greater than 0.1, which was considered to be a cationic lipid with high delivery efficiency.
1. The LNP solution was diluted with 50 mM TBS, pH 7.4 to a concentration of 0.1 mg/mL mRNA.
2. The mice involved in this study were female Balb/C, weighing 18-22 g, 6-8 weeks old, with 5 mice in each group.
3. The dosing solution was kept at 4° C. prior to injection.
4. Each mice received 0.06 mg/kg via tail vein injection.
5. The mice were injected intraperitoneally with 200 μL of 1.5 mg/mL D-luciferin solution 6 h after injection.
6. The in vivo luminescence images of the mice were obtained using the IVIS system (Aniview).
7. The luminescence intensity of each mice was measured using Aniview software.
8. MC3 lipid nanoparticles were used as a positive control. The in vivo efficacy of each cationic lipid tested was recorded as the fold change in luminescence intensity relative to MC3 (ratio normalized to MC3).

SMILES: CCCCC/C=C\C/C=C\CCCCCCCC(=O)OCC(COC(=O)C=C(CCCCCCCCCC)CCCCCCCCCC)COC(=O)OCCCCN(C)C (stereo not drawn) [CPL-256, 3-((3-decyltridec-2-enoyl)oxy)-2-((((4-(dimethylamino)butyloxy)carbonyl)oxy)methyl)propyl(9Z,12Z)-octadeca-9,12-dienoate]
- PDI [1]: 0.1009
- Size (nm) [1]: 83.7 nm
- Encapsulation Rate [2]: 95%
- In Vivo Efficacy Normalized To Mc3 In Mice (Intravenous Injection) (mice): 0.63

SMILES: CCCCC/C=C\C/C=C\CCCCCCCC(=O)OCC(COC(=O)/C=C(\CCCCC)CCCCCC)COC(=O)OCCCN(CC)CC (stereo not drawn) [CPL-266, 3-(((3-(diethylamino)propoxy)carbonyl)oxy)-2-((((E)-3-pentylnon-2-enoyl)oxy)methyl)propyl(9Z,12Z)-octadeca-9,12-dienoate]
- PDI [1]: 0.0481
- Size (nm) [1]: 68.11 nm
- Encapsulation Rate [2]: 97%
- In Vivo Efficacy Normalized To Mc3 In Mice (Intravenous Injection) (mice): 0.72

SMILES: CCCCC/C=C\C/C=C\CCCCCCCC(=O)OCC(COC(=O)/C=C(\CCCCCCC)CCCCCCCC)COC(=O)OCCCN(CC)CC (stereo not drawn) [CPL-274, 3-(((3-(diethylamino)propoxy)carbonyl)oxy)-2-((((E)-3-heptylundec-2-enoyl)oxy)methyl)propyl(9Z,12Z)-octadeca-9,12-dienoate]
- PDI [1]: 0.1812
- Size (nm) [1]: 78.29 nm
- Encapsulation Rate [2]: 97%
- In Vivo Efficacy Normalized To Mc3 In Mice (Intravenous Injection) (mice): 0.37

SMILES: CCCCC/C=C\C/C=C\CCCCCCCC(=O)OCC(COC(=O)/C=C(\CCCCCC)CCCCCCCC)COC(=O)OCCC1CCN(C)CC1 (stereo not drawn) [CPL-292, 3-(((E)-3-hexylundec-2-enoyl)oxy)-2-((((2-(1-methylpiperidin-4-yl)ethoxy)carbonyl)oxy)methyl)propyl(9Z,12Z)-octadeca-9,12-dienoate]
- PDI [1]: 0.1816
- Size (nm) [1]: 90.31 nm
- Encapsulation Rate [2]: 97%
- In Vivo Efficacy Normalized To Mc3 In Mice (Intravenous Injection) (mice): 0.27

SMILES: CCCCC/C=C\C/C=C\CCCCCCCC(=O)OCC(COC(=O)/C=C(\CCC)CCCCCC)COC(=O)OCC1CCN(C)C1 (stereo not drawn) [CPL-324, 3-((((1-methylpyrrolidin-3-yl)methoxy)carbonyl)oxy)-2-((((E)-3-propylnon-2-enoyl)oxy)methyl)propyl(9Z,12Z)-octadeca-9,12-dienoate]
- PDI [1]: 0.1961
- Size (nm) [1]: 99.42 nm
- Encapsulation Rate [2]: 95%
- In Vivo Efficacy Normalized To Mc3 In Mice (Intravenous Injection) (mice): 0.31

SMILES: CCCCC/C=C\C/C=C\CCCCCCCC(=O)OCC(COC(=O)/C=C(\CCCC)CCCCCCCC)COC(=O)OCC1CCN(C)C1 (stereo not drawn) [CPL-329, 3-(((E)-3-butylundec-2-enoyl)oxy)-2-(((((1-methylpyrrolidin-3-yl)methoxy)carbonyl)oxy)methyl)propyl(9Z,12Z)-octadeca-9,12-dienoate]
- PDI [1]: 0.0596
- Size (nm) [1]: 75.57 nm
- Encapsulation Rate [2]: 97%
- In Vivo Efficacy Normalized To Mc3 In Mice (Intravenous Injection) (mice): 0.33

SMILES: CCCCC/C=C\C/C=C\CCCCCCCC(=O)OCC(COC(=O)/C=C(\CCCC)CCCCCCC)COC(=O)OCC1CCN(C)C1 (stereo not drawn) [CPL-338, 3-(((E)-3-butyldec-2-enoyl)oxy)-2-(((((1-methylpyrrolidin-3-yl)methoxy)carbonyl)oxy)methyl)propyl(9Z,12Z)-octadeca-9,12-dienoate]
- PDI [1]: 0.1084
- Size (nm) [1]: 83.4 nm
- Encapsulation Rate [2]: 99%
- In Vivo Efficacy Normalized To Mc3 In Mice (Intravenous Injection) (mice): 0.52

SMILES: CCCCC/C=C\C/C=C\CCCCCCCC(=O)OCC(COC(=O)/C=C(/CCCCCCCC)CCCCCCCCCC)COC(=O)OCC1CCN(C)C1 (stereo not drawn) [CPL-343, 3-((((1-methylpyrrolidin-3-yl)methoxy)carbonyl)oxy)-2-((((Z)-3-octyltridec-2-enoyl)oxy)methyl)propyl(9Z,12Z)-octadeca-9,12-dienoate]
- PDI [1]: 0.1584
- Size (nm) [1]: 116.3 nm
- Encapsulation Rate [2]: 85%
- In Vivo Efficacy Normalized To Mc3 In Mice (Intravenous Injection) (mice): 0.44

SMILES: CCCCC/C=C\C/C=C\CCCCCCCC(=O)OCC(COC(=O)/C=C(/CCCC)CCCCCC)COC(=O)OCC1CCCN(C)C1 (stereo not drawn) [CPL-372, 3-(((Z)-3-butylnon-2-enoyl)oxy)-2-(((((1-methylpiperidin-3-yl)methoxy)carbonyl)oxy)methyl)propyl(9Z,12Z)-octadeca-9,12-dienoate]
- PDI [1]: 0.1182
- Size (nm) [1]: 90.88 nm
- Encapsulation Rate [2]: 98%
- In Vivo Efficacy Normalized To Mc3 In Mice (Intravenous Injection) (mice): 1.01

SMILES: CCCCC/C=C\C/C=C\CCCCCCCC(=O)OCC(COC(=O)/C=C(\CCCCC)CCCCCCCC)COC(=O)OCC1CCCN(C)C1 (stereo not drawn) [CPL-377, 3-((((1-methylpiperidin-3-yl)methoxy)carbonyl)oxy)-2-((((E)-3-pentylundec-2-enoyl)oxy)methyl)propyl(9Z,12Z)-octadeca-9,12-dienoate]
- PDI [1]: 0.1248
- Size (nm) [1]: 88.31 nm
- Encapsulation Rate [2]: 94%
- In Vivo Efficacy Normalized To Mc3 In Mice (Intravenous Injection) (mice): 0.45

SMILES: CCCCC/C=C\C/C=C\CCCCCCCC(=O)OCC(COC(=O)/C=C(\CCCCC)CCCCCCCCCC)COC(=O)OCC1CCCN(C)C1 (stereo not drawn) [CPL-378, 3-((((1-methylpiperidin-3-yl)methoxy)carbonyl)oxy)-2-((((E)-3-_pentyltridec-2-enoyl)oxy)methyl)propyl(9Z,12Z)-octadeca-9,12-dienoate]
- PDI [1]: 0.1099
- Size (nm) [1]: 82.38 nm
- Encapsulation Rate [2]: 96%
- In Vivo Efficacy Normalized To Mc3 In Mice (Intravenous Injection) (mice): 0.43

SMILES: CCCCC/C=C\C/C=C\CCCCCCCC(=O)OCC(COC(=O)/C=C(\CCCCCC)CCCCCCCCCC)COC(=O)OCC1CCCN(C)C1 (stereo not drawn) [CPL-381, 3-(((E)-3-hexyltridec-2-enoyl)oxy)-2-(((((1-methylpiperidin-3-yl)methoxy)carbonyl)oxy)methyl)propyl(9Z,12Z)-octadeca-9,12-dienoate]
- PDI [1]: 0.1174
- Size (nm) [1]: 83.86 nm
- Encapsulation Rate [2]: 91%
- In Vivo Efficacy Normalized To Mc3 In Mice (Intravenous Injection) (mice): 0.81

SMILES: CCCCC/C=C\C/C=C\CCCCCCCC(=O)OCC(COC(=O)/C=C(\CCCCCC)CCCCCCC)COC(=O)OCC1CCCN(C)C1 (stereo not drawn) [CPL-383]
- PDI [1]: 0.1733
- Size (nm) [1]: 99.82 nm
- Encapsulation Rate [2]: 97%
- In Vivo Efficacy Normalized To Mc3 In Mice (Intravenous Injection) (mice): 0.80

SMILES: CCCCC/C=C\C/C=C\CCCCCCCC(=O)OCC(COC(=O)/C=C(/CCCC)CCCCCC)COC(=O)OCCCN1CCN(C)CC1 (stereo not drawn) [CPL-394, 3-(((Z)-3-butylnon-2-enoyl)oxy)-2-((((3-(4-methylpiperazin-1-y)propoxy)carbonyl)oxy)methyl)propyl(9Z,12Z)-octadeca-9,12-dienoate]
- PDI [1]: 0.1069
- Size (nm) [1]: 95.77 nm
- Encapsulation Rate [2]: 97%
- In Vivo Efficacy Normalized To Mc3 In Mice (Intravenous Injection) (mice): 0.13

SMILES: CCCCC/C=C\C/C=C\CCCCCCCC(=O)OCC(COC(=O)/C=C(\CCCCCCC)CCCCCCCCCC)COC(=O)OCCCN1CCN(C)CC1 (stereo not drawn) [CPL-407, 3-(((E)-3-heptyltridec-2-enoyl)oxy)-2-((((3-(4-methylpiperazin-1-yl)propoxy)carbonyl)oxy)methyl)propyl(9Z,12Z)-octadeca-9,12-dienoate]
- PDI [1]: 0.0562
- Size (nm) [1]: 98.86 nm
- Encapsulation Rate [2]: 97%
- In Vivo Efficacy Normalized To Mc3 In Mice (Intravenous Injection) (mice): 0.21
